According to patent US5789439A, “Pharmaceutical use of forskolin derivatives” (Nippon Kayaku Kabushiki Kaisha, priority 1990, dated 1998):
Structures can show the parent of a compound that is named as a salt.

What was measured:
Type in all cases: cell-based
[1] = tested on: NB-1 cells (a human neuroblastoma strain); test: Differentiation inducing effect for NB-1 cells; set-up: key: -: none; ±: slight (<20%); +: medium (20-80%); ++: heavy (>80%); details: 4-hour incubation
Method: The differentiation inducing effect for the NB-1 cells (a human neuroblastoma strain: cell strain derived from neuroblastoma generated in infantile adrenal gland) was examined. The NB-1 cells were applied to a 96-well plate at a rate of 2×10^3 cells/well and precultured for 3 days. After attachment and growth were stabilized, the medium (RPMI 1640+10% fetal calf serum+SM.PC) was exchanged and a 10 μl solution of each test compound was added. Then, the cells were kept under constant observation to determine the occurrence or non-occurrence of differentiation. 2 mM (1.037 mg/ml) of dibutyryl cAMP dissolved in RPMI 1640 was used as positive control. NKH-477 and 14,15-dihydro-6-(3-dimethylaminopropionyl)forskolin hydrochloride were dissolved in a physiological saline. Forskolin was dissolved in DMSO and diluted with a physiological saline. The criterion for judgment of morphological change in differentiation is as follows. The figures in the parentheses are the ratio of the differentiated cells to the whole cells. It was confirmed that DMSO was totally devoid of differentiation inducing and promoting action at the concentrations used in this test.

[2] = tested on: collagen-induced aggregation of rabbit blood thrombocyte; test: Collagen-induced platelet aggregation inhibition, rabbit platelet rich plasma; details: Oryctolagus cuniculus, Platelet; rabbit PRP, collagen 10 μg/ml; mean, n = 5; read-out: Platelet aggregation inhibitory action (IC50), Collagen-induced aggregation
Method: (§1) The platelet aggregation inhibitory action of NKH-477 was examined on collagen-induced aggregation and ADP-induced aggregation of rabbit blood thrombocyte. The male Japanese white rabbits (body weight: 2.4-2.8 kg, procured from Tokyo Experimental Animals Co., Ltd.) were divided into groups of 5. The rabbits were etherized and blood was collected from the carotid artery of each rabbit. A 3.8% sodium citrate solution (final concentration: 0.38%) was added to a portion of blood collected from each group of rabbits to obtain platelet rich plasma (PRP). The remaining portion of blood was centrifuged at 3,000 r.p.m. for 15 minutes to obtain platelet poor plasma (PPP). First, permeability of PRP and PPP was determined by using an aggregometer (RMA-31 mfd. by Rika Denki Kogyo K. K.) and set at 0% and 100%, respectively. Separately from the above operation, 250 μl of PRP was placed in a cuvette and after preliminary heating at 37° C. for 2 minutes, 20 μl of specimen was added and incubated under stirring for 2 minutes. Then 10 μl of ADP (Sigma, final conc.: 3×10^-6 M) or collagen (Hormon-Chemie, final conc.: 10 μg/ml) was added and the transmission rate was measured. The maximum transmission rate observed in this operation was termed as the maximum aggregation rate. Recording in this operation was conducted on an ink-written recorder (B-381L mfd. by Rika Denki Kogyo K. K.). NKH-477 was dissolved in a physiological saline to make concentrations of 10^-8 to 10^-5 M. Forskolin dissolved in ethanol was used as control.

[3] = tested on: ADP-induced aggregation of rabbit blood thrombocyte; test: ADP-induced platelet aggregation inhibition, rabbit platelet rich plasma; details: Oryctolagus cuniculus, rabbit PRP, ADP 3×10^-6 M, mean, n = 5, read-out: Platelet aggregation inhibitory action (IC50), ADP-induced aggregation
Method: as §1, with “NKH-477 was dissolved in a physiological saline to make concentrations of 10^-8 to 10^-5 M. Forskolin dissolved in ethanol was used as control.” left out

| IC50 [2] [µM] | IC50 [3] [µM] | SMILES | Effect (differentiation inducing) ([1]; Dose 1.56 μM) | Effect (differentiation inducing) ([1]; Dose 6.25 μM) | Effect (differentiation inducing) ([1]; Dose 25.00 μM) | Effect (differentiation inducing) ([1]; Dose 100.00 μM) | Effect (differentiation inducing) ([1]; Dose 2000.0 μM) |
| --- | --- | --- | --- | --- | --- | --- | --- |
|  |  | CC[C@@]1(C)CC(=O)[C@]2(O)[C@@]3(C)[C@@H](O)CCC(C)(C)[C@@H]3[C@H](OC(=O)CCN(C)C)[C@H](OC(C)=O)[C@@]2(C)O1 [14,15-dihydro-6-(3-dimethylaminopropionyl)forskolin hydrochloride] | ± (slight (<20%)) | ± (slight (<20%)) | ++ (heavy (>80%)) | ++ (heavy (>80%)) |  |
|  |  | CCCC(=O)Nc1ncnc2c1ncn2[C@@H]1O[C@@H]2COP(=O)(O)O[C@H]2[C@H]1OC(=O)CCC [Dibutyryl cAMP, dibutyryl cAMP, reference compound] |  |  |  |  | + (medium (20-80%)) |
| 3.09 | 6.03 | C=C[C@@]1(C)CC(=O)[C@]2(O)[C@@]3(C)[C@@H](O)CCC(C)(C)[C@@H]3[C@H](O)[C@H](OC(C)=O)[C@@]2(C)O1 [Forskolin] | - | - | ± (slight (<20%)) | + (medium (20-80%)) |  |
